# Laboratory results from patent US12264185B2, “Stabilized BCL9 peptides for treatment of aberrant Wnt signaling” (WntRx Pharmaceuticals Inc., priority 2015, dated 2025).
# Values joined by “and” are separate entries in the source; they are usually repeats but may differ in a detail not shown here. Identical values can stand only once. Bridge positions count the residues as written; N and C are the ends. Square brackets hold non-standard residues; d marks the D form. Peptide text beside a SMILES is read from it. 2Nal = N[C@@H](Cc1ccc2ccccc2c1)C(=O)O; R5 = C=CCCC[C@@](C)(N)C(=O)O; S5 = C=CCCC[C@](C)(N)C(=O)O; βAla = NCCC(=O)O
# Experiments:
# [1] = Pharmacokinetics in female balb/c mice; assay type: in vivo; settings: mouse, plasma, 30 mg/kg intravenous or intraperitoneal
# Experimental: The peptide solution was prepared at the fixed concentration of 0.5 mg/ml, and then suitable amounts were administered according to the dose. The same mixed solvent was used as a vehicle treatment. Blood samples (300 IA) were collected periodically from the retro-orbital vein at 0.25, 1, 2, 4, 6, 7, 12, and 24-hours post-dose (and 36 and 48 hours post-dose for intramuscular, subcutaneous, and intraperitoneal routes), followed by plasma separation for pending bioanalysis by LC-MS/MS. Standard PK parameters were calculated by non-compartmental analysis modules in WinNonlin Professional (v5.2, Pharsight, FDA-certified).
# Two different administration routes, intravenous or intraperitoneal, were compared using 30 mg/kg WX-035. […] As observed with male ICR mice, the half-life of WX-035 in this experiment was more than 9 hours.
# FIG. 33B = assay: FIG. 33B
# Experimental: Table printed on a drawing sheet, FIG. 33B
# The patent's description of the figure: FIG. 33A and FIG. 33B show PK data for WX-035 administered to male ICR mice (an outbred strain). The mice were treated with either 1 mg/kg, or 5 mg/kg WX-035 intravenously or 5 mg/kg WX-035 intraperitoneally.
# First reader's note: Plasma PK parameters by route and dose; according to the description the animals are male ICR mice.
# [2] = Toxicity study of WX-035 in balb/c nude mice (H&E of major organs); assay type: in vivo; settings: 30 mg/kg or 40 mg/kg i.v., 7 consecutive days
# Experimental: To assess the toxicity effect of WX-035, balb/c nude mice were administered with a vehicle, or 30 mg/kg, or 40 mg/kg WX-035, following the procedure described in Example 5.6. At the end of the study, the mice were sacrificed and major organs were harvested for H&E staining.
# [3] = Pharmacokinetics in male ICR mice; settings: mouse, plasma, 5 mg/kg
# Experimental: The tail vein was used for i.v. injections. […] Following injections, blood samples were obtained via the retro-orbital vein at 5 min, 1, 2, 4, 6, 8, 12, and 24 hours postdose. Plasma was obtained from the blood samples following mixing with sodium heparin and centrifugation.
# LC analysis was done using an Agilent 100 HPLC. MS analysis was done using an AB Sciex API 4000. Calibration standards were prepared by serial dilution.
# The maximum observed concentration (Cmax), terminal half-life (T1/2), total body clearance (CL), volume of distribution (Vz), area under the curve from the time of dosing to the last measurable concentration (AUC0-t), area under the curve from the time of dosing extrapolated to infinity (AUC0-inf), and bioavailability were calculated using noncompartmental analysis modules in the FDA-certified pharmacokinetic program WinNonlin Professional v5.2 (Pharsight).
# Briefly, the mice were administered 1 mg/kg or 5 mg/kg intravenously, or 5 mg/kg intraperitoneally. Blood samples were collected at 15 min, 1, 2, 3, 6, 8, 12, and 24 hours post administration.
# FIG. 34B = assay: FIG. 34B
# Experimental: Table printed on a drawing sheet, FIG. 34B
# The patent's description of the figure: FIG. 34A and FIG. 34B show PK data for WX-035 administered to female balb/c mice (n=3). The mice were either intravenously or intraperitoneally administered with 30 mg/kg WX-035. Blood samples from each mouse were collected at 5 min, 15 min, 30 min, 1, 2, 4, 6, 8, 12, 24, 36, 48, and 72 hours post administration.
# First reader's note: Substance, dose (30 mg/kg IV and IP) and species (female Balb/c nude mice, N=3) are printed in the title of FIG. 34A on the same sheet; the label F is printed once, between the mIL/min/kg row and the % row, so the mIL/min/kg row may in fact belong to CL.
# CT26.WT cells = assay type: cell-based
# Experimental: One of the stabilized polypeptides generated in Example 10 was tested in a cell viability assay and compared against WX-035. WX-037 was selected for this comparison study. The cell viability assay was performed with CT26.WT cells (ATCC), following the procedures described in Example 2. Briefly, 4000 cells per well of each plate were seeded with 50 μL opti-MEM medium. Each polypeptide, WX-035 or WX-037, was diluted with 2% FBS containing opti-MEM medium using 1 μL of 200× concentrated polypeptide in 99 μL of the medium. Each stock solution was diluted for testing a wide range of concentrations. 50 μL of 2× concentrated polypeptide was added to each well of the plate. Three days after the polypeptide addition, the viability of cells was measured using CellTiterGlo assay, according to the manufacturer's protocol.
# Colo320DM cells = assay: cells; settings: Colo320DM cells
# Experimental: Colo320DM cells were selected for this assay as the proliferation of this particular cell line is dependent on BCL9 and β-catenin. ICG001, a known Wnt/β-catenin small molecule inhibitor, was used as a positive control. The cell viability at each treatment condition was analyzed using CellTiterGlo luminescent cell viability assay (Promega) according to the manufacturer's protocols.
# Following the procedure described in Example 2, the ability of WX-035 to inhibit cell growth was tested in a cell viability assay using Colo320DM cells.
# CT26 cells = assay: CT26 syngeneic mouse model of colon cancer (Balb/c); assay type: in vivo, mice
# Experimental: The syngeneic mouse model of colon cancer using CT26 was then assessed. Male Balb/c mice were injected subcutaneously in the right flank with 5×10^4 CT26 cells each at approximately 5 weeks of age. […] Eight mice were included in each treatment group.
# The whole blood was taken from each mouse. Lymphocytes were purified from the blood samples by Ficoll, and the cells were stained with fluorescent anti-CD4 antibody. Data were measured by flow cytometry.
# As described above, the whole blood was taken from each mouse. Lymphocytes were purified from blood by Ficoll, and the cells were stained with fluorescent anti-CD8 antibody. Data were measured by flow cytometry.
# To further assess whether WX-024 is capable of modulating a tumor microenvironment, tumor and blood samples were collected in anticoagulation tubes at the end of the study. Single cells separation was performed and then cells were stained for FACS analysis. For cell surface staining, CD45-PerCP-Cy5, CD4-FITC, CD8-PE-Cy7, and CD25-PE were used. For intranuclear staining, cells were permeabilized overnight and then stained with Foxp3-APC for 60 minutes.
# The in vivo efficacy of WX-035 in treating a cancer was assessed in a syngeneic mouse model, following the procedures described in Example 5.3. Trametinib, a known MEK inhibitor, was used as a comparison. Briefly, balb/c mice were inoculated with CT26 and treatment started when tumor volume reached to about 100 mm^3. The mice were then divided into three groups and began administered with a vehicle, 40 mg/kg WX-035, or 1 mg/kg trametinib for 7 consecutive days.
# At the end of the study described in Example 9.2, a tumor sample from each mouse was collected to assess the effect of WX-035 in modulating T cell activation. The FACS analysis of each tumor sample was performed following the procedure described in Example 5. A shown in FIG. 36A, treatment with WX-035 reduced the total amount of CD45^+ cells. […] Likewise, Foxp3^+ CD25^+ T cells were reduced by WX-035 treatment (FIG. 36C). […] Furthermore, by increasing the ratio of cytotoxic T cells over regulatory T cells, WX-035 may induce a microenvironment that favors an immune reaction beneficial for tumor treatment. Of note, the samples collected from this experiment were also assessed for LGR5 expression.
structure (smiles),measurement,setting,value
"CC[C@H](C)[C@@H]1NC(=O)[C@@](C)(NC(=O)[C@H](CCCNC(=N)N)NC(=O)[C@H](CC(C)C)NC(=O)[C@]2(C)CCCC=CCCC[C@@](C)(NC(C)=O)C(=O)N[C@@H](CC(C)C)C(=O)N[C@@H](CCC(N)=O)C(=O)N2)CCCC=CCCC[C@@](C)(C(=O)N[C@@H](CC(C)C)C(=O)N[C@@H](Cc2ccc3ccccc3c2)C(=O)NCCC(=O)NCCC(N)=O)NC(=O)[C@H](CCCNC(=N)N)NC(=O)[C@H](CCC(N)=O)NC1=O [WX-035, Xaa1LQXaa2LRXaa3IQRXaa4L] (Ac-[R5]LQ[S5]LR[S5]IQR[S5]L[2Nal][βAla][βAla]-NH2; staple 1-4, 7-11)",half-life,[1],> 9 h
same,F | %,FIG. 33B,72%
same,H&E staining of major organs,[2],did not cause any significant abnormality to major organs
same,half-life,[3],> 4 h
same,AUCINF |,FIG. 34B,996.181 µg·h/mL and 997.708 µg·h/mL
same,AUClast |,FIG. 34B,987.148 µg·h/mL and 996.029 µg·h/mL
same,CL |,FIG. 34B,0.502 mL/min/kg
same,CMAX |,FIG. 34B,102393 ng/mL
same,MRTINF | hr,FIG. 34B,5.50 h
same,TERMINAL t1/2 | hr,FIG. 34B,9.81 h and 7.03 h
same,TMAX | hr,FIG. 34B,2.00 h
same,Vss |,FIG. 34B,0.166 L/kg
same,IC50,CT26.WT cells,1860 nM
same,effect on cell viability / cell growth,Colo320DM cells,improved IC50 value as compared to WX-024
same,Foxp3+ CD25+ T cells in tumor,"CT26 cells; WX-035, 7 days",reduced
same,LGR5 expression in intestine samples,"CT26 cells; WX-035, 7 days",reduced
same,total amount of CD4+ or CD8+ T cells in tumor,"CT26 cells; WX-035, 7 days",reduced
same,total amount of CD45+ cells in tumor,"CT26 cells; WX-035, 7 days",reduced
same,ratio between cytotoxic T cells (CD8+) and Foxp3+ regulatory T cells,"CT26 cells; WX-035, 7 days, vs vehicle",increased
same,average tumor growth inhibition,"CT26 cells; WX-035 i.p. for 7 consecutive days, day 7 / end of study",88.44%
